The values below come from patent US8933099B2, “Monocyclic pyridine derivative” (Eisai R&D Management Co., Ltd., priority 2013, dated 2015).

In experiment [1] the test system is human stomach cancer cell line SNU-16 (FGFR2 gene amplification). The experiment can be described thus: SNU-16 growth inhibition assay. The format is cell-based. The procedure: In this assay, the growth inhibitory activity of a test substance in a human stomach cancer cell line harboring FGFR2 gene amplification is measured.
Then, 10 μL of Cell Counting Kit-8 (Dojindo Laboratories, CK04) was added to each well, and the resultant was incubated for 1 to 2 hours in a 5% CO2 incubator (37° C.) to cause a color reaction. The absorbance value was measured with ENVISION™ (PerkinElmer Co., Ltd.) at 450 nm.

Experiment [2] deals with normal human umbilical vein endothelial cells (HUVEC). The experiment can be described thus: HUVEC growth inhibition assay (VEGF-induced). The format is cell-based. Here is the method: The absorbance value was measured with ENVISION™ (PerkinElmer Co., Ltd.) at 450 nm. The absorbance values of the wells without adding the test substance but with VEGF addition was defined as 100% and the absorbance values of the wells with neither the test substance nor VEGF addition was defined as 0%.

The mark [3] stands for this setting: Homo sapiens, SNU-16, 72 h, read-out: SNU-16 (IC50 (nM)), cell growth, 3 days, Cell Counting Kit-8.
Where [4] appears, read: Homo sapiens, HUVEC, 72 h, read-out: HUVEC (IC50 (nM)), growth in the presence of VEGF 10 ng/mL, 3 days.
Setting [5] is: read-out: SNU-16 (IC50 (nM)), cell growth, 3 days, Cell Counting Kit-8.
Where [6] appears, read: read-out: HUVEC (IC50 (nM)), growth in the presence of VEGF 10 ng/mL, 3 days.

Read-outs that look alike come from different tables or passages of the source.

Turning to `CNC(=O)n1ccc2cc(Oc3ccnc(NC(=O)c4ccc(C5CCN(C[C@H](C)O)CC5)cc4)c3)c(OC(C)C)cc21` [Example 66], the IC50 in experiment [1] (setting [3]) is 16.1 nM; in experiment [2] (setting [4]), 203 nM.
In the case of `CNC(=O)n1ccc2cc(Oc3ccnc(NC(=O)c4ccc(C5CCN(CCO)CC5)cc4)c3)c(OC(C)C)cc21` [Example 67], the IC50 in experiment [1] (setting [3]) worked out at 17.6 nM; in experiment [2] (setting [4]), 223 nM.
Taken in the same sequence, the figures for `CCN1CCC(c2ccc(C(=O)Nc3cc(Oc4cc5ccn(C(=O)NC)c5cc4OC(C)C)ccn3)cc2)CC1` [Example 68] were 20 nM and 256 nM.
Taken in the same sequence, the figures for `CNC(=O)n1ccc2cc(Oc3ccnc(NC(=O)c4ccc(CN5CCC(O)CC5)cc4)c3)c(OC(C)C)cc21` [Example 70] were 22.4 nM and 610 nM.
Regarding `CNC(=O)n1ccc2cc(Oc3ccnc(NC(=O)c4ccc(CN5CC[C@H](O)C5)cc4)c3)c(OCCCF)cc21` [Example 71], the IC50 in experiment [1] (setting [3]) amounted to 17 nM; in experiment [2] (setting [4]), 648 nM.
Taken in the same sequence, the figures for `CNC(=O)n1ccc2cc(Oc3ccnc(NC(=O)c4ccc(CN5CC[C@@H](O)C5)cc4)c3)c(OCCCF)cc21` [Example 72] were 17.1 nM and 681 nM.
With `CNC(=O)n1ccc2cc(Oc3ccnc(NC(=O)c4ccc(CN5CCC(O)CC5)cc4)c3)c(OCCCF)cc21` [Example 73], the IC50 in experiment [1] (setting [3]) was 17.4 nM; in experiment [2] (setting [4]) it was 703 nM.
With `CNC(=O)n1ccc2cc(Oc3ccnc(NC(=O)c4ccc(C5CCN(C[C@@H](C)O)CC5)cc4)c3)c(OCCCF)cc21` [Example 74], the IC50 in experiment [1] (setting [3]) was 8.4 nM; in experiment [2] (setting [4]) it was 198 nM.
The like results for `CNC(=O)n1ccc2cc(Oc3ccnc(NC(=O)c4ccc(C5CCN(C[C@H](C)O)CC5)cc4)c3)c(OCCCF)cc21` [Example 75] were, in that order, 7.3 nM and 211 nM.
Take `CNC(=O)n1ccc2cc(Oc3ccnc(NC(=O)c4ccc(C5CCN(C)CC5)cc4)c3)c(OCCCF)cc21` [Example 76]: the IC50 is 7.5 nM in experiment [1] (setting [3]) and 248 nM in experiment [2] (setting [4]).
The like results for `CNC(=O)n1ccc2cc(Oc3ccnc(NC(=O)c4ccc(C5CCN(C(C)C)CC5)nc4)c3)c(OCCOC)cc21` [Example 77] were, in that order, 9.6 nM and 1030 nM.
Taken in the same sequence, the figures for `CCN1CCC(c2ccc(C(=O)Nc3cc(Oc4cc5ccn(C(=O)NC)c5cc4OCCOC)ccn3)cn2)CC1` [Example 78] were 6.2 nM and 835 nM.
The like results for `CNC(=O)n1ccc2cc(Oc3ccnc(NC(=O)c4ccc(C5CN(C[C@@H](C)O)C5)cc4)c3)c(OCCOC)cc21` [Example 80] were, in that order, 3.8 nM and 182 nM.
As to `CNC(=O)n1ccc2cc(Oc3ccnc(NC(=O)c4ccc(C5CN(C[C@H](C)O)C5)cc4)c3)c(OCCOC)cc21` [Example 81], the results for the IC50 in experiment [1] (setting [3]) and in experiment [2] (setting [4]) were 3.8 nM and 126 nM, respectively.
Take `CNC(=O)n1ccc2cc(Oc3ccnc(NC(=O)c4ccc(CN5CCC[C@@H]5CO)s4)c3)c(OCCOC)cc21` [Example 82]: the IC50 in experiment [1] (setting [3]) came to 6.2 nM; in experiment [2] (setting [4]), 264 nM.
Taken in the same sequence, the figures for `CNC(=O)n1ccc2cc(Oc3ccnc(NC(=O)c4ccc(CN5CC[C@H](O)C5)s4)c3)c(OCCOC)cc21` [Example 84] were 6.2 nM and 255 nM.
On to `CNC(=O)n1ccc2cc(Oc3ccnc(NC(=O)c4ccc(CN5CC[C@@H](O)C5)s4)c3)c(OCCOC)cc21` [Example 85], for which the IC50 in experiment [1] (setting [3]) stood at 6.9 nM; in experiment [2] (setting [4]), 235 nM.
With `CNC(=O)n1ccc2cc(Oc3ccnc(NC(=O)c4ccc(CN5CCC(O)CC5)s4)c3)c(OCCOC)cc21` [Example 86], the IC50 in experiment [1] (setting [3]) was found to be 6.2 nM; in experiment [2] (setting [4]), 250 nM.
As for `CCN1CC(c2ccc(C(=O)Nc3cc(Oc4cc5ccn(C(=O)NC)c5cc4OCCOC)ccn3)cc2)C1` [Example 89], the IC50 in experiment [1] (setting [3]) came out at 6.5 nM; in experiment [2] (setting [4]) it was 416 nM.
Taken in the same sequence, the figures for `CNC(=O)n1ccc2cc(Oc3ccnc(NC(=O)c4ccc(C5CCN(C[C@@H](C)O)CC5)cc4)c3)c(OCCOC)cc21` [Example 90] were 6.1 nM and 203 nM.
Consider `CNC(=O)n1ccc2cc(Oc3ccnc(NC(=O)c4ccc(C5CCN(C[C@H](C)O)CC5)cc4)c3)c(OCCOC)cc21` [Example 91], for which the figures for the IC50 in experiment [1] (setting [3]) and in experiment [2] (setting [4]) were 5.3 nM and 191 nM, respectively.
Taken in the same sequence, the figures for `CCN1CCC(c2ccc(C(=O)Nc3cc(Oc4cc5ccn(C(=O)NC)c5cc4OCCOC)ccn3)cc2)CC1` [Example 92] were 5.8 nM and 182 nM.
The like results for `CNC(=O)n1ccc2cc(Oc3ccnc(NC(=O)c4ccc(CN5CCC(O)CC5)cc4)c3)c(OCCOC)cc21` [Example 93] were, in that order, 17.6 nM and 887 nM.
The like results for `CCOCCOc1cc2c(ccn2C(=O)NC)cc1Oc1ccnc(NC(=O)c2ccc(C3CCN(C(C)C)CC3)nc2)c1` [Example 94] were, in that order, 7.9 nM and 607 nM.
Turning to `CCOCCOc1cc2c(ccn2C(=O)NC)cc1Oc1ccnc(NC(=O)c2ccc(CN3CCC[C@@H]3CO)s2)c1` [Example 98], the IC50 stood at 6.3 nM in experiment [1] (setting [3]) and 228 nM in experiment [2] (setting [4]).
The like results for `CCOCCOc1cc2c(ccn2C(=O)NC)cc1Oc1ccnc(NC(=O)c2ccc(CN3CCC[C@H]3CO)s2)c1` [Example 99] were, in that order, 6.3 nM and 224 nM.
For the molecule `CCOCCOc1cc2c(ccn2C(=O)NC)cc1Oc1ccnc(NC(=O)c2ccc(CN3CC[C@@H](O)C3)s2)c1` [Example 100], the IC50 in experiment [1] (setting [5]) stood at 5.8 nM; in experiment [2] (setting [6]), 207 nM.
For `CCOCCOc1cc2c(ccn2C(=O)NC)cc1Oc1ccnc(NC(=O)c2ccc(CN3CCC(O)CC3)s2)c1` [Example 101], the IC50 in experiment [1] (setting [3]) amounted to 6.8 nM; in experiment [2] (setting [4]), 182 nM.
`CCOCCOc1cc2c(ccn2C(=O)NC)cc1Oc1ccnc(NC(=O)c2ccc(C3CN(C)C3)cc2)c1` [Example 102]: the IC50 was 3.7 nM in experiment [1] (setting [5]) and 226 nM in experiment [2] (setting [6]).
On to `CCOCCOc1cc2c(ccn2C(=O)NC)cc1Oc1ccnc(NC(=O)c2ccc(C3CN(C(C)C)C3)cc2)c1` [Example 103], for which the IC50 in experiment [1] (setting [3]) was determined as 5.4 nM; in experiment [2] (setting [4]) it was 296 nM.
The like results for `CCOCCOc1cc2c(ccn2C(=O)NC)cc1Oc1ccnc(NC(=O)c2ccc(CN3CCC[C@@H]3CO)cc2)c1` [Example 104] were, in that order, 13.7 nM and 600 nM.
Consider `CCOCCOc1cc2c(ccn2C(=O)NC)cc1Oc1ccnc(NC(=O)c2ccc(CN3CC[C@H](O)C3)cc2)c1` [Example 105], for which the results for the IC50 in experiment [1] (setting [3]) and in experiment [2] (setting [4]) were 7.8 nM and 687 nM, respectively.
Consider `CCOCCOc1cc2c(ccn2C(=O)NC)cc1Oc1ccnc(NC(=O)c2ccc(CN3CCC(F)CC3)cc2)c1` [Example 107], for which the IC50 is 22 nM in experiment [1] (setting [3]) and 907 nM in experiment [2] (setting [4]).
As to `CCOCCOc1cc2c(ccn2C(=O)NC)cc1Oc1ccnc(NC(=O)c2ccc(CN3CCN(CC)CC3)cc2)c1` [Example 108], the values for the IC50 in experiment [1] (setting [3]) and in experiment [2] (setting [4]) were 14.7 nM and 363 nM, respectively.
Taken in the same sequence, the figures for `CCOCCOc1cc2c(ccn2C(=O)NC)cc1Oc1ccnc(NC(=O)c2ccc(C3CCN(C[C@@H](C)O)CC3)cc2)c1` [Example 111] were 5.1 nM and 195 nM.
For `CCOCCOc1cc2c(ccn2C(=O)NC)cc1Oc1ccnc(NC(=O)c2ccc(C3CCN(C[C@H](C)O)CC3)cc2)c1` [Example 112], the IC50 turned out to be 3.8 nM in experiment [1] (setting [3]) and 202 nM in experiment [2] (setting [4]).
`CCOCCOc1cc2c(ccn2C(=O)NC)cc1Oc1ccnc(NC(=O)c2ccc(CN3CCC(O)CC3)cc2)c1` [Example 115]: the IC50 in experiment [1] (setting [3]) was 11.4 nM; in experiment [2] (setting [4]), 616 nM.
The like results for `CNC(=O)n1ccc2cc(Oc3ccnc(NC(=O)c4ccc(CN5CCC[C@H]5CO)cc4)c3)c(OCCCOC)cc21` [Example 117] were, in that order, 16.6 nM and 534 nM.
The like results for `CNC(=O)n1ccc2cc(Oc3ccnc(NC(=O)c4ccc(C5CN(C[C@@H](C)O)C5)cc4)c3)c(OCCCOC)cc21` [Example 118] were, in that order, 8.6 nM and 183 nM.
Turning to `CNC(=O)n1ccc2cc(Oc3ccnc(NC(=O)c4ccc(C5CN(C[C@H](C)O)C5)cc4)c3)c(OCCCOC)cc21` [Example 119], the IC50 in experiment [1] (setting [3]) amounted to 11.9 nM; in experiment [2] (setting [4]) it was 242 nM.
With `CNC(=O)n1ccc2cc(Oc3ccnc(NC(=O)c4ccc(CN5CC[C@@H](O)C5)cc4)c3)c(OCCCOC)cc21` [Example 121], the IC50 in experiment [1] (setting [3]) came to 14.9 nM; in experiment [2] (setting [4]), 518 nM.
Taken in the same sequence, the figures for `CNC(=O)n1ccc2cc(Oc3ccnc(NC(=O)c4ccc(CN5CCC(O)CC5)cc4)c3)c(OCCCOC)cc21` [Example 122] were 11.3 nM and 494 nM.
As to `CNC(=O)n1ccc2cc(Oc3ccnc(NC(=O)c4ccc(C5CCN(C[C@@H](C)O)CC5)cc4)c3)c(OCCCOC)cc21` [Example 125], the IC50 in experiment [1] (setting [3]) worked out at 7.2 nM; in experiment [2] (setting [4]), 203 nM.
With `CNC(=O)n1ccc2cc(Oc3ccnc(NC(=O)c4ccc(C5CCN(C[C@H](C)O)CC5)cc4)c3)c(OCCCOC)cc21` [Example 126], the results for the IC50 in experiment [1] (setting [3]) and in experiment [2] (setting [4]) were 6.6 nM and 197 nM, respectively.
As to `CNC(=O)n1ccc2cc(Oc3ccnc(NC(=O)c4ccc(C5CCN(C)CC5)cc4)c3)c(OCCCOC)cc21` [Example 130], the results for the IC50 in experiment [1] (setting [3]) and in experiment [2] (setting [4]) were 6.8 nM and 254 nM, respectively.
